The results in this text go back to patent US5081117A (priority 1989, dated 1992).

Counter-ions that a name gives are not always drawn.

One may read the IC50 as the concentration needed to halve the response being measured. Low values mean inhibition by little substance, high ones a need for much substance.

The target in this assay is T1, acetylcholinesterase (AChE), rat striatum (Rattus norvegicus, UniProt P37136).
T1 construct: corpora striata dissected free, weighed and homogenized in 19 volumes; from tissue; host or cells: homogenate of corpora striata of male Wistar rats
T1 sequence (P37136 32-614): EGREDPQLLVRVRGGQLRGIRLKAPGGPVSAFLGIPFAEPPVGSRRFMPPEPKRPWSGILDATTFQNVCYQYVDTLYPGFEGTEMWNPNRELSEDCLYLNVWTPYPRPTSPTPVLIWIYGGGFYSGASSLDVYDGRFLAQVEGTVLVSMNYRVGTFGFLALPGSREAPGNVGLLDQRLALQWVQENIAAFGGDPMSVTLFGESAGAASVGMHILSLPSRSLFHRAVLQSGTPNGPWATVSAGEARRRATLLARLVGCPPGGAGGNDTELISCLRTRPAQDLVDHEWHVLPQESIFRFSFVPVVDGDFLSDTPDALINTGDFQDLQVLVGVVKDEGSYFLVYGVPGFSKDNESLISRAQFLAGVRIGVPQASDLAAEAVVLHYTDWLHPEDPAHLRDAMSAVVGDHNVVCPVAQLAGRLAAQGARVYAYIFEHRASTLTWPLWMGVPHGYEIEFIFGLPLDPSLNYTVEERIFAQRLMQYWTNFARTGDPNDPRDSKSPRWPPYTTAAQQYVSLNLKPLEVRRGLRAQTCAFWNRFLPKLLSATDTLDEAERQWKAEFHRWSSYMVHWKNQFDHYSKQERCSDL
Put plainly: In vitro inhibition of acetylcholinesterase activity in rat striatum (modified Ellman method). The class given is biochemical, Male Wistar rats. An excerpt:
Cholinesterases are found throughout the body, both in the brain and in serum. However, only brain acetylcholinesterase (AChE) distribution is correlated with central cholinergic innervation. […] We have determined in vitro inhibition of acetylcholinesterase activity in rat striatum according to the method described below.
In Vitro Inhibition of Acetylcholinesterase Activity in Rat Striatum
The method described below was used in this invention for assaying anticholinesterase activity. This is a modification of the method of Ellman et al., Biochem. Pharmacol. 7, 88 (1961).
1. 0.05M Phopsphate buffer, pH 7.2
(a) 6.85 g NaH2 PO4 .cndot.H2 O/100 ml distilled H2 O
(c) add (a) to (b) until pH reaches 7.2
(a) 9.9 mg 5,5-dithiobisnitrobenzoic acid (DTNB) (0.25 mM)
(b) 99 mg s-acetylthiocholine chloride (5 mM)
(c) q.s. to 100 ml with 0.05M phosphate buffer, pH 7.2 (reagent 1)
3. For most assays, a 2 mM stock solution of the test drug is made up in a suitable solvent and serially diluted such that the final concentration in the preincubation step ranges from 10^-3 to 10^-6 M. Different concentrations may be used depending on the potency of the drug.
Male Wistar rats are decapitated, brains rapidly removed, corpora striata dissected free, weighed and homogenized in 19 volumes (approximately 7 mg protein/ml) of 0.05M phosphate buffer, pH 7.2 using a Potter-Elvehjem homogenizer. A 50 microliter aliquot of the homogenate is added to 50 microliter vehicle of various concentrations of the test drug and preincubated for 10 minutes at room temperature.
1. For routine IC50 determinations the Abbott Bichromatic Analyzer, ABA-100, is used to determine acetylcholinesterase activity.
Incubation temperature: 30° C.
Reaction direction: down:endpoint
Syringe plate: 1:101 dilution
Following the 10 minute preincubation of the tissue (enzyme) with the inhibitor, the samples are mixed with the substrate chromogen buffer by the ABA-100. Using the indicated instrument settings the ABA-100 automatically reads the color reaction and prints out the results in enzyme units after 15 minutes.
2. The enzyme activity can also be measured with a Gilford 250 spectrophotometer. This method is used for more accurate kinetic measurements.
Reagents are added to the reference and sample side of a split curvette as follows:
The unhibited activity of the enzyme (tissue homogenate) is first determined. Test drugs are made up in a suitable solvent and added in suitable dilutions to the buffer vehicle. The reaction rate is determined by the slope of the recorded absorbance change. The actual rate (moles/liter/min) can be calculated as described in the following formula
rate (moles/liter/min)=slope/(1.36×10^4)
(Ellman's reagent forms a yellow product with free thiols.)
`CN1CC[C@@]2(C)c3c(OC(=O)NC4CCCCC4)cccc3N(C)[C@@H]12` (relative stereo) [cis-(±)-1,2,3,3a,8,8a-Hexahydro-1,3a,8-trimethylpyrrolo[2,3-b]indol-4-ylcyclohexyl carbamate fumarate]: half-maximal inhibition (IC50) was put at 550 nM.

`CNC(=O)Oc1cccc2c1[C@]1(C)CCN(C)[C@@H]1N2C` (relative stereo) [cis-(±)-1,2,3,3a,8,8a-Hexahydro-1,3a,8-trimethylpyrrolo[2,3-b]indol-4-ylmethylcarbamate fumarate]: it took 60 nM to reach half-maximal inhibition (IC50).

Molecule `CN1CC[C@@]2(C)c3ccc(OC(=O)NC4CCCCC4)cc3N(C)[C@@H]12` (relative stereo) [cis-(±)-1,2,3,3a,8,8a-Hexahydro-1,3a,8-trimethylpyrrolo[2,3-b]indol-6-ylcyclohexyl carbamate salicylate] gave a 50% inhibitory concentration (IC50) of 5500 nM.

For the molecule `CNC(=O)Oc1ccc2c(c1)N(C)[C@H]1N(C)CC[C@@]21C` (relative stereo) [cis-(±)-1,2,3,3a,8,8a-Hexahydro-1,3a,8-trimethylpyrrolo[2,3-b]indol-6-ylmethylcarbamate salicylate], the IC50 was determined as 230 nM.

`CNC(=O)Oc1cc2c(cc1Br)[C@]1(C)CCN(C)[C@@H]1N2C` (relative stereo) [cis-(±)-5-Bromo-1,2,3,3a,8,8a-hexahydro-1,3a,8-trimethylpyrrolo[2,3-b]indol-6-yl methyl carbamate sesquifumarate] gave an IC50 of 13 nM.
